Data taken from patent US20240208992A1, “MACROCYCLES AS CFTR MODULATORS” (Idorsia Pharmaceuticals Ltd, priority 2021, published 2024).
pEC50: −log10 of the molar value.

Molecular target: human F508del-CFTR (Homo sapiens, UniProt P13569, DEL508-508)
Experiment: F508del-CFTR cell surface expression (corrector activity), DiscoveRx ß-galactosidase complementation chemiluminescence assay in recombinant U2OS cell line;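 also: U2OS cells co-expressing ProLink-tagged F508del-CFTR and a membrane-anchored enzyme acceptor, where more surface CFTR restores β-galactosidase activity measured by chemiluminescence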
Settings: for pEC50: EC50, F508del-CFTR cell surface expression, U2OS cells, 16h compound incubation, geomean values; for Emax: U2OS, in relation to Emax of corrector lumacaftor (=100%), arithmetic mean values

human F508del-CFTR, sequence (P13569 with tags, fused parts or gaps DEL508-508): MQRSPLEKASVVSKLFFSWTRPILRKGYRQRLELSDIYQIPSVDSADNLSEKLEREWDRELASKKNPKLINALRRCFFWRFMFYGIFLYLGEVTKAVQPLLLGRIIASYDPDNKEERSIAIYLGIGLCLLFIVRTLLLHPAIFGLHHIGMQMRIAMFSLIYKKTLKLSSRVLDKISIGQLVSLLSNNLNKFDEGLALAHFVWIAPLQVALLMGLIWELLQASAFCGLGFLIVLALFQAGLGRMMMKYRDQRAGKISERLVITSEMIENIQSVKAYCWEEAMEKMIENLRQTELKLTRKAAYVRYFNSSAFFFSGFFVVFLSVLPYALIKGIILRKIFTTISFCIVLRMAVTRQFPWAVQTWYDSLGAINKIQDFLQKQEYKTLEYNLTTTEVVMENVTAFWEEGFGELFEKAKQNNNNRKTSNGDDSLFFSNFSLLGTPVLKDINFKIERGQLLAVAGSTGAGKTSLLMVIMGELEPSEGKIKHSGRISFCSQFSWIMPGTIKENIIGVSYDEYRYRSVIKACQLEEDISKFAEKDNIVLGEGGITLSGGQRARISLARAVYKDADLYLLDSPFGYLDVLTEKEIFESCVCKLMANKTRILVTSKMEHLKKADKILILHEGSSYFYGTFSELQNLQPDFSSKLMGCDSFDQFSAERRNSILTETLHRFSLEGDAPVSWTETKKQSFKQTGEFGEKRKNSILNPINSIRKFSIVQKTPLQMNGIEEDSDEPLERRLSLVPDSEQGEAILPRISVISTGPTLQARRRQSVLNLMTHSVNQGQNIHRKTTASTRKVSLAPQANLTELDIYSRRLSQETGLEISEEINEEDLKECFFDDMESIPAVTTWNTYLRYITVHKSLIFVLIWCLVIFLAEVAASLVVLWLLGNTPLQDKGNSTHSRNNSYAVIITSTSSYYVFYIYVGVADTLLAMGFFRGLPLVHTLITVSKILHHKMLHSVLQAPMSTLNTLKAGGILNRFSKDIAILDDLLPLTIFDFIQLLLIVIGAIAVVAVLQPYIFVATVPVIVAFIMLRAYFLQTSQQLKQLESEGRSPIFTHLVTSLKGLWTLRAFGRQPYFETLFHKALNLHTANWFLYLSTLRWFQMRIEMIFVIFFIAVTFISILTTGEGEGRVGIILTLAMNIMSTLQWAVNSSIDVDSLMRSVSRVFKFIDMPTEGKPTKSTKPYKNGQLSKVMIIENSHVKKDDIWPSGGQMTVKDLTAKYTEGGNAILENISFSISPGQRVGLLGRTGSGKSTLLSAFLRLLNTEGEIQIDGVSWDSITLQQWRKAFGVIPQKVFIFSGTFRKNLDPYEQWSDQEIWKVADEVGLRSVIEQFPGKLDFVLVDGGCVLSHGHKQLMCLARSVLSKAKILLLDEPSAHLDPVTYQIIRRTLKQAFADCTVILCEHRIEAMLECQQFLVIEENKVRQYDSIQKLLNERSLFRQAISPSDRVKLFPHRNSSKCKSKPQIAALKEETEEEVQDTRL

| SMILES | pEC50 | Emax [%] |
| --- | --- | --- |
| COc1nccc2c1C(=O)N[C@H](C(=O)NCCc1noc(C3CC3)n1)CC(=O)N(C)[C@@H](CC(C)C)C(=O)N(C)[C@H](CCc1nc(-c3ccccc3)no1)C(=O)N[C@H](Cc1ccccc1)CO2 [Example 571, (3R,6R,9S,13S)-3-benzyl-N-(2-(5-cyclopropyl-1,2,4-oxadiazol-3-yl)ethyl)-9-isobutyl-16-methoxy-7,10-dimethyl-5,8,11,15-tetraoxo-6-(2-(3-phenyl-1,2,4-oxadiazol-5-yl)ethyl)-2,3,4,5,6,7,8,9,10,11,12,13,14,15-tetradecahydropyrido[3,4-p][1]oxa[4,7,10,14]tetraazacycloheptadecine-13-carboxamide] | 7.33 | 347 |
| COc1cccc(CCNC(=O)[C@@H]2CC(=O)N(C)[C@@H](CC(C)C)C(=O)N(C)[C@@H](C)C(=O)N[C@H](Cc3ccccc3)COc3cnc4ccccc4c3C(=O)N2)c1 [Example 572, (3S,7S,10S,13R)-13-benzyl-7-isobutyl-N-(3-methoxyphenethyl)-6,9,10-trimethyl-1,5,8,11-tetraoxo-1,2,3,4,5,6,7,8,9,10,11,12,13,14-tetradecahydro-[1]oxa[4,7,10,14]tetraazacycloheptadecino[17,16-c]quinoline-3-carboxamide] | 6.15 | 200 |
| Cc1cc(CCNC(=O)[C@@H]2CC(=O)N(C)[C@@H](CC(C)C)C(=O)N(C)[C@H](C)C(=O)N[C@H](Cc3ccccc3)COc3cnc4ccccc4c3C(=O)N2)on1 [Example 573, (3S,7S,10R,13R)-13-benzyl-7-isobutyl-6,9,10-trimethyl-N-(2-(3-methylisoxazol-5-yl)ethyl)-1,5,8,11-tetraoxo-1,2,3,4,5,6,7,8,9,10,11,12,13,14-tetradecahydro-[1]oxa[4,7,10,14]tetraazacycloheptadecino[17,16-c]quinoline-3-carboxamide] | 6.37 | 306 |
| CC(C)C[C@H]1C(=O)N(C)[C@H](C)C(=O)N[C@H](Cc2ccccc2)COc2cnc3ccccc3c2C(=O)N[C@H](C(=O)NCCc2cc(C3CC3)no2)CC(=O)N1C [Example 574, (3S,7S,10R,13R)-13-benzyl-N-(2-(3-cyclopropylisoxazol-5-yl)ethyl)-7-isobutyl-6,9,10-trimethyl-1,5,8,11-tetraoxo-1,2,3,4,5,6,7,8,9,10,11,12,13,14-tetradecahydro-[1]oxa[4,7,10,14]tetraazacycloheptadecino[17,16-c]quinoline-3-carboxamide] | 6.51 | 319 |
| COc1nccc2c1C(=O)N[C@H](C(=O)NCCc1noc(C3CC3)n1)CC(=O)N(C)[C@@H](CC(C)C)C(=O)N(C)[C@@H](CCc1nc(-c3ccccc3)no1)C(=O)N[C@H](Cc1ccccc1)CO2 [Example 577, (3R,6S,9S,13S)-3-benzyl-N-(2-(5-cyclopropyl-1,2,4-oxadiazol-3-yl)ethyl)-9-isobutyl-16-methoxy-7,10-dimethyl-5,8,11,15-tetraoxo-6-(2-(3-phenyl-1,2,4-oxadiazol-5-yl)ethyl)-2,3,4,5,6,7,8,9,10,11,12,13,14,15-tetradecahydropyrido[3,4-p][1]oxa[4,7,10,14]tetraazacycloheptadecine-13-carboxamide] | 6.22 | 268 |
| Cc1cc(CCNC(=O)[C@@H]2CC(=O)N(C)[C@@H](CC(C)C)C(=O)N(C)[C@H](CCOCc3ccccc3)C(=O)N[C@H](Cc3ccccc3)COc3cnc4ccccc4c3C(=O)N2)on1 [Example 578, (3S,7S,10R,13R)-13-benzyl-10-(2-(benzyloxy)ethyl)-7-isobutyl-6,9-dimethyl-N-(2-(3-methylisoxazol-5-yl)ethyl)-1,5,8,11-tetraoxo-1,2,3,4,5,6,7,8,9,10,11,12,13,14-tetradecahydro-[1]oxa[4,7,10,14]tetraazacycloheptadecino[17,16-c]quinoline-3-carboxamide] | 7.28 | 319 |
| Cc1cc(CCNC(=O)[C@@H]2CC(=O)N(C)[C@@H](CC(C)C)C(=O)N(C)[C@@H](CCOCc3ccccc3)C(=O)N[C@H](Cc3ccccc3)COc3cnc4ccccc4c3C(=O)N2)on1 [Example 579, (3S,7S,10S,13R)-13-benzyl-10-(2-(benzyloxy)ethyl)-7-isobutyl-6,9-dimethyl-N-(2-(3-methylisoxazol-5-yl)ethyl)-1,5,8,11-tetraoxo-1,2,3,4,5,6,7,8,9,10,11,12,13,14-tetradecahydro-[1]oxa[4,7,10,14]tetraazacycloheptadecino[17,16-c]quinoline-3-carboxamide] | 6.40 | 131 |
| COc1cc(CCNC(=O)[C@@H]2CC(=O)N(C)[C@@H](CC(C)C)C(=O)N3CCC4(CC4)C[C@@H]3C(=O)N[C@H](Cc3ccccc3)COc3cc(C)nc(OC)c3C(=O)N2)on1 [Example 580, (7′S,11′S,17a′R,20′R)-20′-benzyl-11′-isobutyl-4′-methoxy-N-(2-(3-methoxyisoxazol-5-yl)ethyl)-2′,10′-dimethyl-5′,9′,12′,18′-tetraoxo-5′,6′,7′,8′,9′,10′,11′,12′,14′,15′,17′,17a′,18′,19′,20′,21′-hexadecahydrospiro[cyclopropane-1,16′-dipyrido[2,1-f:3′,4′-p][1]oxa[4,7,10,14]tetraazacycloheptadecine]-7′-carboxamide] | 6.70 | 319 |
| [2H]C([2H])([2H])Oc1nc(C)cc2c1C(=O)N[C@H](C(=O)NCCc1cc(OC)no1)CC(=O)N(C)[C@@H](CC(C)C)C(=O)N1CCCC[C@@H]1C(=O)N[C@H](Cc1ccccc1)CO2 [Example 581, (7S,11S,17aR,20R)-20-benzyl-11-isobutyl-4-(methoxy-d3)-N-(2-(3-methoxyisoxazol-5-yl)ethyl)-2,10-dimethyl-5,9,12,18-tetraoxo-5,6,7,8,9,10,11,12,15,16,17,17a,18,19,20,21-hexadecahydro-14H-dipyrido[2,1-f:3′,4′-p][1]oxa[4,7,10,14]tetraazacycloheptadecine-7-carboxamide] | 6.52 | 303 |
| COc1cc(CCNC(=O)[C@@H]2CC(=O)N(C)[C@@H](CC(C)C)C(=O)N(CCC3CCCCC3)CC(=O)N[C@H](Cc3ccccc3)COc3ccnc(OC)c3C(=O)N2)on1 [Example 582, (3R,9S,13S)-3-benzyl-7-(2-cyclohexylethyl)-9-isobutyl-16-methoxy-N-(2-(3-methoxyisoxazol-5-yl)ethyl)-10-methyl-5,8,11,15-tetraoxo-2,3,4,5,6,7,8,9,10,11,12,13,14,15-tetradecahydropyrido[3,4-p][1]oxa[4,7,10,14]tetraazacycloheptadecine-13-carboxamide] | 6.94 | 279 |
| Cc1ccc2c(c1)OC[C@@H](Cc1ccccc1)NC(=O)CN(C)C(=O)[C@H](CC(C)C)N(C)C(=O)C[C@@H](C(=O)NCCc1ccc3c(c1)OCO3)NC2=O [Example 583, (3R,9S,13S)-N-(2-(benzo[d][1,3]dioxol-5-yl)ethyl)-3-benzyl-9-isobutyl-7,10,18-trimethyl-5,8,11,15-tetraoxo-2,3,4,5,6,7,8,9,10,11,12,13,14,15-tetradecahydrobenzo[p][1]oxa[4,7,10,14]tetraazacycloheptadecine-13-carboxamide] | 6.47 | 90 |
| COc1cccc(CCNC(=O)[C@@H]2CC(=O)N(C)[C@@H](CC(C)C)C(=O)N3CC[C@@H](C3)C(=O)N[C@H](Cc3ccccc3)COc3ccc(OC)cc3C(=O)N2)c1 [Example 584, (13S,4R,10S,14S)-4-benzyl-14-isobutyl-74-methoxy-N-(3-methoxyphenethyl)-13-methyl-2,8,12,15-tetraoxo-6-oxa-3,9,13-triaza-1(3,1)-pyrrolidina-7(1,2)-benzenacyclopentadecaphane-10-carboxamide] | 6.24 | 156 |
| COc1cc2c(cc1OC)C(=O)N[C@H](C(=O)NCCc1ccc3c(c1)OCO3)CC(=O)N(C)[C@@H](CC(C)C)C(=O)N(CCC1CCCCC1)CC(=O)N[C@H](Cc1ccccc1)CO2 [Example 585, (3R,9S,13S)-N-(2-(benzo[d][1,3]dioxol-5-yl)ethyl)-3-benzyl-7-(2-cyclohexylethyl)-9-isobutyl-17,18-dimethoxy-10-methyl-5,8,11,15-tetraoxo-2,3,4,5,6,7,8,9,10,11,12,13,14,15-tetradecahydrobenzo[p][1]oxa[4,7,10,14]tetraazacycloheptadecine-13-carboxamide] | 6.75 | 168 |
| COc1cccc(CCNC(=O)[C@@H]2CC(=O)N(C)[C@@H](CC(C)C)C(=O)N(CCC3CCCCC3)CC(=O)N[C@H](Cc3ccccc3)COc3cc(OC)c(OC)cc3C(=O)N2)c1 [Example 586, (3R,9S,13S)-3-benzyl-7-(2-cyclohexylethyl)-9-isobutyl-17,18-dimethoxy-N-(3-methoxyphenethyl)-10-methyl-5,8,11,15-tetraoxo-2,3,4,5,6,7,8,9,10,11,12,13,14,15-tetradecahydrobenzo[p][1]oxa[4,7,10,14]tetraazacycloheptadecine-13-carboxamide] | 6.66 | 165 |
| COc1cccc(CCNC(=O)[C@@H]2CC(=O)N(C)[C@@H](CC(C)C)C(=O)N3CCCC[C@@H]3C(=O)N[C@H](Cc3ccccc3)COc3ccc(OC)cc3C(=O)N2)c1 [Example 587, (7S,11S,20R,22aR)-20-benzyl-7-isobutyl-15-methoxy-N-(3-methoxyphenethyl)-8-methyl-6,9,13,22-tetraoxo-1,3,4,6,7,8,9,10,11,12,13,19,20,21,22,22a-hexadecahydro-2H-benzo[p]pyrido[2,1-f][1]oxa[4,7,10,14]tetraazacycloheptadecine-11-carboxamide] | 6.38 | 106 |
| COc1cccc(CCNC(=O)[C@@H]2CC(=O)N(C)[C@@H](CC(C)C)C(=O)N3CCOC[C@@H]3C(=O)N[C@H](Cc3ccccc3)COc3ccc(OC)cc3C(=O)N2)c1 [Example 588, (7S,11S,20R,22aR)-20-benzyl-7-isobutyl-15-methoxy-N-(3-methoxyphenethyl)-8-methyl-6,9,13,22-tetraoxo-1,3,4,6,7,8,9,10,11,12,13,19,20,21,22,22a-hexadecahydrobenzo[p][1,4]oxazino[3,4-f][1]oxa[4,7,10,14]tetraazacycloheptadecine-11-carboxamide] | 6.19 | 102 |
